Drawing on PubChem BioAssay (NCI), this text covers TGI for 13 compounds.

Structures are written as SMILES.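 1) Cells in 96-well plates. 2) Compound, 48 h, 5 concentrations. 3) Linear interpolation between surrounding doses. 4) Unreached endpoint = highest concentration. At the TGI there is no net growth.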

Among the test systems are DLD-1 colon; DMS 114 small cell lung; DMS 273 small cell lung; HOP-92 NSCLC; KM20L2 colon; RXF 393 renal; SF-268 CNS; SF-295 CNS; SK-OV-3 ovarian; SR leukemia; XF 498 CNS; M19-MEL melanoma; SNB-78 CNS.
Holding throughout (assay): growth of human tumour cells (NCI), 48 h

For the compound `CCOC(=O)C(=Cc1ccc(Oc2ccccc2)cc1)C(=O)OCC`, the TGI in the experiment on DLD-1 colon was found to be 5.21 µM; with DMS 114 small cell lung, 10.9 µM; in the experiment with DMS 273 small cell lung it was 3.68 µM; in the experiment with HOP-92 NSCLC, 16.2 µM; in the experiment with KM20L2 colon, 16.8 µM; with RXF 393 renal, 4.69 µM. The TGI was determined as 9.19 µM in the experiment on SF-268 CNS; 10.6 µM in the experiment with SF-295 CNS; 20.5 µM with SK-OV-3 ovarian; 6.07 µM in the experiment on SR leukemia; 11.3 µM with XF 498 CNS.

On to `O=[N+]([O-])c1cccc(-c2oc(C=Nc3ccccc3)c([N+](=O)[O-])c2-c2cccc([N+](=O)[O-])c2)c1`, for which the TGI in the experiment on DLD-1 colon, in the experiment on DMS 114 small cell lung, with DMS 273 small cell lung, in the experiment with HOP-92 NSCLC, in the experiment on KM20L2 colon and in the experiment with M19-MEL melanoma was more than 100 µM throughout. The TGI in the experiment on RXF 393 renal, with SF-268 CNS, with SF-295 CNS, with SK-OV-3 ovarian and in the experiment with SNB-78 CNS was more than 100 µM each time.

For `C[C@]1(CO)CCC[C@@]2(C)C1CC[C@H]1CC3C[C@]12CC[C@]3(C)O` (some centres undefined), the TGI in the experiment on DLD-1 colon, in the experiment on DMS 114 small cell lung, with DMS 273 small cell lung, with HOP-92 NSCLC, with KM20L2 colon and with RXF 393 renal was more than 100 µM in each case. Besides, the TGI with SF-268 CNS, with SF-295 CNS, in the experiment on SK-OV-3 ovarian, in the experiment on SNB-78 CNS, in the experiment with SR leukemia and in the experiment on XF 498 CNS was more than 100 µM each time.

Consider `C=C(Br)N(CC)CC`, for which the TGI in the experiment with DLD-1 colon, with DMS 114 small cell lung, with DMS 273 small cell lung, in the experiment on HOP-92 NSCLC, with KM20L2 colon and in the experiment with M19-MEL melanoma was more than 100 µM each time. The TGI in the experiment on RXF 393 renal, in the experiment with SF-268 CNS, in the experiment with SF-295 CNS, in the experiment with SK-OV-3 ovarian, in the experiment on SNB-78 CNS and with SR leukemia was more than 100 µM in each case.

With `COC1OC(COCc2ccc(Cl)cc2)C(OCc2ccc(Cl)cc2)C1N=[N+]=[N-]` (centres undefined), the TGI with DMS 114 small cell lung, with HOP-92 NSCLC, in the experiment with KM20L2 colon, in the experiment with RXF 393 renal, with SF-295 CNS and in the experiment on SK-OV-3 ovarian was more than 100 µM throughout. Also, the TGI with SNB-78 CNS, in the experiment with SR leukemia and with XF 498 CNS was more than 100 µM each time.

In the case of `C1=CC=C2NCCCNC3=CC=CC=CC3=NCCCN=C2C=C1`, the TGI with DLD-1 colon, in the experiment on DMS 114 small cell lung, in the experiment with DMS 273 small cell lung, in the experiment with HOP-92 NSCLC, in the experiment on KM20L2 colon and in the experiment on M19-MEL melanoma was more than 100 µM each time. Besides, the TGI in the experiment with SF-268 CNS, with SF-295 CNS, in the experiment with SK-OV-3 ovarian, in the experiment with SNB-78 CNS and in the experiment on XF 498 CNS was more than 100 µM in each case.

On to `CN(C)CCNC(=O)c1cccc2c1nc(-c1ccccc1)c1ccccc12`, for which the TGI was found to be 15.3 µM in the experiment with DLD-1 colon; 13.2 µM with DMS 273 small cell lung; 9.24 µM in the experiment with HOP-92 NSCLC; 17.3 µM with M19-MEL melanoma; 9.43 µM with RXF 393 renal; 18.5 µM in the experiment with SF-268 CNS. For the same compound, the figures for the TGI with SF-295 CNS, with SK-OV-3 ovarian and with SNB-78 CNS were 18.7 µM, 19.6 µM and 26.4 µM, respectively.

Turning to `O=C(Cc1nc2ccccc2s1)Nc1cccc(C(F)(F)F)c1`, the TGI is 29.9 µM with DLD-1 colon; 36.3 µM with DMS 114 small cell lung; 42.9 µM in the experiment with DMS 273 small cell lung; 41.6 µM in the experiment with KM20L2 colon; 25.6 µM in the experiment on M19-MEL melanoma; 32.3 µM in the experiment on RXF 393 renal. The TGI in the experiment on SF-268 CNS worked out at 29.7 µM; with SF-295 CNS, 30.7 µM; with SK-OV-3 ovarian it was 44.3 µM; with XF 498 CNS it was 28.4 µM.

For the compound `CC1C[C@@H]2C(=O)NC(=O)[C@@H]2c2c1c1ccccc1n2C` (some centres undefined), the TGI in the experiment on DLD-1 colon, in the experiment on DMS 114 small cell lung, in the experiment on DMS 273 small cell lung, in the experiment with HOP-92 NSCLC, with KM20L2 colon and in the experiment on M19-MEL melanoma was more than 100 µM each time. For the same compound, the TGI with RXF 393 renal, in the experiment on SF-268 CNS, in the experiment on SF-295 CNS, with SK-OV-3 ovarian, in the experiment with SNB-78 CNS and in the experiment on XF 498 CNS was more than 100 µM in each case.

Take `CS(=O)(=O)N(N(CCCl)S(=O)(=O)c1ccccc1)S(C)(=O)=O`: the TGI with DLD-1 colon, with DMS 273 small cell lung, with HOP-92 NSCLC, in the experiment on KM20L2 colon, in the experiment with M19-MEL melanoma and in the experiment with RXF 393 renal was more than 100 µM each time. Further, the TGI in the experiment with SF-268 CNS, in the experiment with SF-295 CNS, in the experiment on SR leukemia and in the experiment with XF 498 CNS was more than 100 µM throughout.

As for `O=C(Cn1ccnc1[N+](=O)[O-])c1ccc(F)cc1`, the TGI in the experiment with DMS 114 small cell lung, in the experiment with DMS 273 small cell lung, in the experiment with HOP-92 NSCLC, in the experiment with KM20L2 colon, in the experiment on M19-MEL melanoma and in the experiment on RXF 393 renal was more than 100 µM throughout. Besides, the TGI in the experiment with SF-268 CNS, in the experiment on SF-295 CNS, in the experiment with SK-OV-3 ovarian and in the experiment with XF 498 CNS was more than 100 µM each time.

Turning to `O=C(CCC(=O)C(C(=O)c1ccccc1)c1ccccc1)Nc1cccc(C(F)(F)F)c1` (centres undefined), the TGI with DLD-1 colon, in the experiment on DMS 114 small cell lung, in the experiment with DMS 273 small cell lung, in the experiment on HOP-92 NSCLC, with KM20L2 colon and in the experiment on M19-MEL melanoma was more than 100 µM throughout. Also, the TGI in the experiment with SF-268 CNS, with SF-295 CNS, in the experiment on SK-OV-3 ovarian, in the experiment on SNB-78 CNS and in the experiment on XF 498 CNS was more than 100 µM each time.

On to `O=[N+]([O-])c1cccc(C2ON2C2CCCCC2)c1` (centres undefined), for which the TGI with DLD-1 colon worked out at 29.9 µM; in the experiment with DMS 114 small cell lung it was 42.9 µM; in the experiment with DMS 273 small cell lung, 41.5 µM; with HOP-92 NSCLC it was 89.7 µM; in the experiment on KM20L2 colon it was 49.3 µM; with M19-MEL melanoma it was 39.9 µM. Moreover, the TGI in the experiment with SF-268 CNS was 51 µM; in the experiment on SF-295 CNS it was more than 100 µM; with SK-OV-3 ovarian, more than 100 µM; in the experiment with SNB-78 CNS it was more than 100 µM; in the experiment with SR leukemia it was 7.81 µM.
